One data set deals with ABCA1. The experiment in a line: ABCA1 gene expression in the CNS after oral dosing. Format: in vivo, C57 B1/6 mice. The note with it: oral gavage, Example 1 10 mg kg twice daily, T0901317 50 mg/kg once daily. The method, then:
(§1) Total RNA was isolated from tissue and cell culture samples using TRIzol reagent (GibcoBRL). Briefly, tissue samples were thawed directly in 1 ml Trizol/50 mg tissue and homogenized with a polytron. To facilitate recovery of nucleic acid, 100 μg glycogen (Ambion) was added. Cultured cells were lysed in 1 ml Trizol containing 100 μg glycogen per well. Samples were then extracted in chloroform and spun at 4° C. at 11,000×g for 15 min. The aqueous phase was collected and the RNA was precipitated with the addition of isopropanol. The samples were then spun at 11,000×g at 4° C. for 15 min, the pellet washed in 75% ethanol, dried, and dissolved in water. Samples were stored at −70° C. until use.
Total RNA samples were diluted to 100 μg/ml and treated with 40 units/ml […] DNAse-I (Ambion) for 30 min at 37° C. followed by inactivation at 75° C. for 5 min. Samples were quantitated by spectrophotometry or with the RiboGreen assay (Molecular Probes) and diluted to a concentration of 10 ng/μl. Samples were then assayed in duplicate or triplicate 25-μl reactions using 25 ng RNA per reaction with Perkin Elmer chemistry on an ABI Prism 7700 (Perkin Elmer) according to manufacturer's instructions. Gene-specific primers were used at 7.5 or 22.5 pmol per reaction, optimized for each gene examined, and the gene-specific probe was used at 5 pmol per reaction. Primers and probe were synthesized by Keystone Labs (Camarillo, Calif.). In this system, the probe is degraded by Taq polymerase during the amplification phase, releasing the fluorescent tag from its quenched state; amplification data is expressed as the number of PCR cycles required to elevate the fluorescence signal beyond a threshold intensity level. Fold induction values were calculated by subtracting the mean threshold cycle number (Ct) for each treatment group from the mean Ct for the vehicle group and raising 2 to the power of this difference.
Adult male C57 B1/6 mice (3 per group) were dosed by oral gavage with the LXR agonists Example 1, T0901317, or vehicle (0.5% methylcellulose). Example 1 was delivered at 10 mg kg twice daily, while T0901317 was administered at 50 mg/kg once daily. After 3 or 7 days' treatment, animals were killed and their brains removed. The cerebellum and both hippocampi were dissected and snap frozen in liquid nitrogen for RNA isolation. Total RNA was prepared from the hippocampus and cerebellum (black bars) and analyzed for gene expression patterns using QRT-PCR (as described above). Expression levels for each gene in each tissue were normalized to the average expression level in the vehicle group. Both LXR agonists enhanced ABCA1 expression relative to the vehicle-treated group, with the effect most pronounced in the cerebellum after 3 days' treatment.

In another data set the test system is ABCG1. Kind of data set: ABCG1 gene expression in primary astrocyte cultures (QRT-PCR). It counts as cell-based, mouse. The note with it: Astrocytes. The procedure: as §1
Total RNA samples were diluted to 100 μg/ml and treated with 40 units/ml […] DNAse-I (Ambion) for 30 min at 37° C. followed by inactivation at 75° C. for 5 min. Samples were quantitated by spectrophotometry or with the RiboGreen assay (Molecular Probes) and diluted to a concentration of 10 ng/μl. […] In this system, the probe is degraded by Taq polymerase during the amplification phase, releasing the fluorescent tag from its quenched state; amplification data is expressed as the number of PCR cycles required to elevate the fluorescence signal beyond a threshold intensity level. […]

Data set [1] concerns Primary murine neuronal cultures. The experiment in a line: Cholesterol efflux from neurons. Format: cell-based, mouse. As to conditions: standard deviation in parentheses. The procedure: Primary murine neuronal cultures were prepared from C57 B1/6 mice essentially as described elsewhere (23). In brief, embryonic day 18 fetuses were collected by caesarian section, their brains removed and the cerebral cortices dissected from the rest of the brain. The tissue was rinsed during these steps several times in Ca^2+- and Mg^2+-free Hank's balanced salt solution (HBSS, containing 1 mM HEPES, GIBCO). After the meninges were removed with forceps, the tissue was minced and incubated for 15 minutes at 37° C. in 0.25% trypsin (Sigma) in HBSS. The tissue was then washed twice in HBSS and twice in neuronal plating media (minimal essential media [MEM] containing 3 mg/ml glucose, 5% fetal bovine serum [FBS; GibcoBRL], 5% horse serum [HS; GibcoBRL], 100 U/ml penicillin/100 μg/ml streptomycin [Irvine Scientific] and 2 mM glutamine [Irvine Scientific]) to which 10 μg/ml DNAseI (Sigma) had been added. […] The resulting cell pellet was resuspended in plating media, and trypan blue-excluding surviving cells were counted in a hemacytometer. […]
Cholesterol efflux assays were performed as described elsewhere (24) with some modifications. […] Two hundred microliters of the culture media supernatant and 200 μl of the cell extract were counted for tritium in 2 ml Packard Ultima Gold Scint. […] Efflux is expressed as percent of the total radiolabeled cholesterol pool present in the cultures.

For `O=C(O)Cc1cccc(OCCCN(Cc2cccc(C(F)(F)F)c2Cl)CC(c2ccccc2)c2ccccc2)c1` [Example 1, 2-(3-{3-[[2-Chloro-3-(trifluoromethyl)benzyl](2,2-diphenylethyl)amino]propoxy}-phenyl)acetic Acid], the “ABCA1 expression normalized to vehicle group” value is 2.13 (0.354) in the data set with ABCA1 (CB (cerebellum), first table); 1.43 (0.302) with ABCA1 (CB (cerebellum), second table); 1.57 (0.348) in the data set with ABCA1 (HC (hippocampus), first table); 1.26 (0.162) with ABCA1 (HC (hippocampus), second table). Also, in the data set with ABCG1, the “ABCG1 expression normalized to vehicle-treated group (fold induction)” value is reported as 14.9. Further, in data set [1], the “Cholesterol efflux as a percentage of total [3H] cholesterol” value is recorded as 1.252 (0.179) %.
With `O=S(=O)(c1ccccc1)N(CC(F)(F)F)c1ccc(C(O)(C(F)(F)F)C(F)(F)F)cc1` [Example T0901317, N-(2,2,2-trifluoroethyl)-N-[4-(2,2,2-trifluoro-1-hydroxy-1-trifluoromethyl-ethyl)-phenyl]-benzenesulfonamide], the “ABCA1 expression normalized to vehicle group” value is on record as 3.66 (0.389) in the data set with ABCA1 (CB (cerebellum), first table); 2.94 (0.084) with ABCA1 (CB (cerebellum), second table); 2.70 (0.304) with ABCA1 (HC (hippocampus), first table); 2.69 (0.175) with ABCA1 (HC (hippocampus), second table). For the same compound, in the data set with ABCG1, the “ABCG1 expression normalized to vehicle-treated group (fold induction)” value was determined as 12.5. Also, the “Cholesterol efflux as a percentage of total [3H] cholesterol” value in data set [1] is 1.427 (0.031) %.

Source of the values: patent US20050171084A1, “Methods of treatment with lxr modulators” (priority 2002, published 2005).
